Source: US20060035847A1, “Glucopyranosyloxyprazole derivatives and use thereof in medicines” (KISSEI PHARMACEUTICAL CO., LTD., priority 2000, published 2006)

Tests used:
[1] = system: SD rats; assay: Assay for the facilitatory effect on urinary glucose excretion; assay type: in vivo; settings: glucose load 2 g/kg, 24 hours urine
Description: Assay for the Facilitatory Effect on Urinary Glucose Excretion
(§1) As experimental animal, overnight fasted SD rats (Japan SLC. Inc., male, 7 weeks of age, 202-221 g) were used. A Test compound was suspended in 0.5% sodium carboxymethylcellulose solution at the concentration of 2 mg/mL. When homogenous suspension was not obtained in this condition, the test compound was dissolved in ethanol at the concentration of 200 mg/mL of active form and then 2 mg/mL suspension was obtained by adding this solution to 99 times volumes of 0.5% sodium carboxymethylcellulose solution. A part of this suspension was diluted with 0.5% sodium carboxymethylcellulose solution and then 0.6 and 0.2 mg/mL suspensions were prepared. After the body weights of rats were measured, the test suspension was orally administered at the dose of 5 mL/kg (1, 3 and 10 mg/kg). For control, just only 0.5% sodium carboxymethylcellulose solution was orally administered at the dose of 5 mL/kg. Immediately after this oral administration, 400 g/L glucose solution was orally administered at the dose of 5 mL/kg (2 g/kg). The oral administration was performed with gastric tube for rat and 2.5 mL syringe. The head count in one group was 3. Collection of urine was performed in metabolic cage after the glucose administration was finished. The sampling time for collection of urine was 24 hours after the glucose administration. After collection of urine was finished, the urine volume was recorded and the urinary glucose concentration was measured. The glucose concentration was measured with a kit for laboratory test: Glucose B-Test WAKO (Wako Pure Chemical Industries, Ltd.). The amount of urinary glucose excretion in 24 hours per 200 g of body weight was calculated from urine volume, urinary glucose concentration and body weight.
as §1, with “bodyweights” for “body weights”

[2] = target: T1, human SGLT2 (Homo sapiens, UniProt P31639, I433V); assay: Assay for inhibitory effect on human SGLT2 activity (methyl-α-D-glucopyranoside uptake in COS-7 cells transiently expressing human SGLT2); assay type: cell-based
T1 construct: expressed in transfected cells; host or cells: COS-7 cells (RIKEN CELL BANK RCB0539), transient, electroporation
T1 sequence (P31639 1-672 I433V): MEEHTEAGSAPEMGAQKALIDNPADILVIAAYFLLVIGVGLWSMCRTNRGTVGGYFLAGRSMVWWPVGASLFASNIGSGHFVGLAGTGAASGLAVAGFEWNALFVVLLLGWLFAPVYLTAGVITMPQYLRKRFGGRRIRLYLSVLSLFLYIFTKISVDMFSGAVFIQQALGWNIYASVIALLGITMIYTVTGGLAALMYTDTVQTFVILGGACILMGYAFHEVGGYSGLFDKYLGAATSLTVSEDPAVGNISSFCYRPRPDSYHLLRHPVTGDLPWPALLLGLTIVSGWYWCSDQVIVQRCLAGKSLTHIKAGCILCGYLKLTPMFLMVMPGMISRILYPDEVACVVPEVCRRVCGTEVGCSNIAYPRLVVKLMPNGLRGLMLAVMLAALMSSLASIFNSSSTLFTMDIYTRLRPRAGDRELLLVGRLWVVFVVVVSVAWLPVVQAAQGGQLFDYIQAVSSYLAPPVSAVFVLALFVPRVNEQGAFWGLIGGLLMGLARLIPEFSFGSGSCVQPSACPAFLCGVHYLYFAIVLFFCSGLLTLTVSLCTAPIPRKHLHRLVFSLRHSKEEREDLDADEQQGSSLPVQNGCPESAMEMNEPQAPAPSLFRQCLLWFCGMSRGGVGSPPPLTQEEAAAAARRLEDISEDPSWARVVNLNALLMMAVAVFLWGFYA
Description: Assay for Inhibitory Effect on Human SGLT2 Activity
1) Construction of the Plasmid Vector Expressing Human SGLT2
Preparation of the cDNA library for PCR amplification was performed by reverse transcription of a total RNA deprived from human kidney (Ori gene) with oligo dT as the primer, using SUPERSCRIPT Preamplification System (Gibco-BRL: LIFE TECHNOLOGIES). The DNA fragment coding for human SGLT2 was amplified by the PCR reaction, in which the human kidney cDNA library described above was used as the template and the following oligo nucleotides 0702F and 0712R, presented as sequence number 1 and 2 respectively, were used as the primers. The amplified DNA fragment was ligated into pCR-Blunt (Invitrogen), a vector for cloning, according to standard method of the kit. The Escherichia coli HB101 was transformed according to usual method and then selection of the transformants was performed on the LB agar medium containing 50 μg/mL of kanamycin. After plasmid DNA was extracted and purified from the one of the transformants, amplifying of the DNA fragment coding for human SGLT2 was performed by the PCR reaction, in which the following oligo nucleotides 0714F and 0715R, presented as sequence number 3 and 4 respectively, were used as the primers. The amplified DNA fragment was digested with restriction enzymes, Xho I and Hind III, and then purified with Wizard Purification System (Promega). This purified DNA fragment was inserted at into the corresponding restriction sites of pcDNA3.1 (−) Myc/His—B (Invitrogen), a vector for expressing of fusion protein. The Escherichia coli HB101 was transformed according to usual method and then selection of the transformant was performed on the LB agar medium containing 100 μg/mL of ampicillin. After plasmid DNA was extracted and purified from this transformant, the base sequence of the DNA fragment inserted at the multi-cloning sites of the vector pcDNA3.1 (−) Myc/His—B was analyzed. […] Sequentially, a clone in which valine is substituted for isoleucine-433 was obtained. This plasmid vector expressing human SGLT2 in which the peptide presented as sequence number 5 is fused to the carboxyl terminal alanine residue was designated KL29.
2) Preparation of the Cells Expressing Transiently Human SGLT2
KL29, the plasmid coding human SGLT2, was transfected into COS-7 cells (RIKEN CELL BANK RCB0539) by electroporation. Electroporation was performed with GENE PULSER II (Bio-Rad Laboratories) under the condition: 0.290 kV, 975 μF, 2×10^6 cells of COS-7 cell and 20 μg of KL29 in 500 μL of OPTI-MEM I medium (Gibco-BRL: LIFE TECHNOLOGIES) in the 0.4 cm type cuvette. After the gene transfer, the cells were harvested by centrifugation and resuspended with OPTI-MEM I medium (1 mL/cuvette). To each well in 96-wells plate, 125 μL of this cell suspension was added. After overnight culture at 37° C. under 5% CO2, 125 μL of DMEM medium which is containing 10% of fetal bovine serum (Sanko Jyunyaku), […] sodium penicillin G (Gibco-BRL: LIFE TECHNOLOGIES), 100 μg/mL streptomycin sulfate (Gibco-BRL: LIFE TECHNOLOGIES) was added to each well. These cells were cultured until the next day and then they were used for the measurement of the inhibitory activity against the uptake of methyl-α-D-glucopyranoside.
3) Measurement of the Inhibitory Activity Against the Uptake of methyl-α-D-glucopyranoside
After a test compounds was dissolved in dimethyl sulfoxide and diluted with the uptake buffer (a pH 7.4 buffer containing 140 mM sodium chloride, 2 mM potassium chloride, 1 mM calcium chloride, 1 mM magnesium chloride, 5 mM methyl-α-D-glucopyranoside, 10 mM 2-[4-(2-hydroxyethyl)-1-piperazinyl]ethane sulfonic acid and 5 mM tris(hydroxymethyl)aminomethane), each diluent was used as test sample for measurement of the inhibitory activity. […]

[3] = system: normal mice; settings: cited from earlier work
[4] = system: ICR mice; assay: Acute toxicity test; assay type: in vivo; settings: male ICR mice, oral 2000 mg/kg, observation until 24 hours, 5 animals in each group
Description: After 4 week old male ICR mice (Japan SLC. Inc., 20-25 g, 5 animals in each group) were fasted for 4 hours, the suspension (200 mg/mL) prepared by adding of 0.5% sodium carboxymethylcellulose solution to the test compound was orally administered at the dose of 10 mL/kg (2000 mg/kg). Observation was performed until 24 hours after the administration.

| SMILES | Amount of Urinary Glucose Excretion ([1]; oral dose 1 mg/kg) | Amount of Urinary Glucose Excretion ([1]; oral dose 3 mg/kg) | Amount of Urinary Glucose Excretion ([1]; oral dose 10 mg/kg) | inhibitory activity in human SGLT2 (in words) [2] | IC50 ([2]; inhibition of methyl-α-D-glucopyranoside uptake, COS-7 cells expressing human SGLT2, 37° C., 2 hours) [µM] | amount of excreted glucose [3] | Death number [4] |
| --- | --- | --- | --- | --- | --- | --- | --- |
| COC(=O)OC[C@H]1O[C@@H](Oc2nn(C(C)C)c(C)c2Cc2ccc(OC(C)C)cc2)[C@H](O)[C@@H](O)[C@@H]1O [Example 15, 4-[(4-Isopropoxyphenyl)methyl]-1-isopropyl-3-(6-O-methoxycarbonyl-β-D-glucopyranosyloxy)-5-methylpyrazole] | 1.7 mg/24 hours · 200 g body weight | 36.8 mg/24 hours · 200 g body weight | 167.3 mg/24 hours · 200 g body weight | – | – | – | – |
| CCOC(=O)OC[C@H]1O[C@@H](Oc2nn(C(C)C)c(C)c2Cc2ccc(OC(C)C)cc2)[C@H](O)[C@@H](O)[C@@H]1O [Example 1, 3-(6-O-Ethoxycarbonyl-β-D-glucopyranosyloxy)-4-[(4-isopropoxyphenyl)methyl]-1-isopropyl-5-methylpyrazole] | 1.6 mg/24 hours · 200 g body weight | 28.3 mg/24 hours · 200 g body weight | 127.5 mg/24 hours · 200 g body weight | – | – | – | – |
| CSc1ccc(Cc2c(C(F)(F)F)[nH][nH]c2=O)cc1 [WAY-123783, reference compound] | – | – | – | extremely weak inhibitory activity | > 100 | increased | – |
| COC(=O)OC[C@H]1O[C@@H](Oc2n[nH]c(C)c2Cc2ccc(OC(C)C)cc2)[C@H](O)[C@@H](O)[C@@H]1O [Example 48, 4-[(4-Isopropoxyphenyl)methyl]-3-(6-O-methoxycarbonyl-β-D-glucopyranosyloxy)-5-methyl-1H-pyrazole] | – | – | – | – | – | – | 0/5 |
